The values below come from patent publication US20190247376A1, “NICOTINIC ACETYLCHOLINE RECEPTOR AGONIST ATTENUATES ILC2-DEPENDENT AIRWAY HYPERREACTIVITY” (University of Southern California, priority 2016, published 2019).

This assay relates to human ILC2s. The assay can be described thus: In vitro culture of human ILC2s, IL-5 and IL-13 production. It is filed as cell-based. To be noted: agonist 10 μg mL−1; rh-IL-2, rh-IL-7, rh-IL-33; 24h. The method, then: FIGS. 7A-7E: α7nAChR agonist prevents human ILC2s mediated AHR and allergic. (FIG. 7A) Human ILC2s were purified from PBMCs via FACS and cultured (10^4 cells per mL) in the presence of recombinant human IL-33 (20 ng mL^−1), IL-2 (10 ng mL^−1), and IL-7 (20 ng mL^−1), with or without α7nAChR agonist for 24h. In the right panel, data are presented as means of four individual donors. (FIG. 7B) Human peripheral-blood mononuclear cells were isolated via FACS and cultured in the presence or absence of rh-IL-2 (10 ng mL^−1) and rh-IL-7 (20 ng mL^−1) for 48 hours, then adoptively transferred into Rag2^−/− GC^−/− mice that were intranasally challenged with rm-IL-33 or PBS, with or without α7nAChR agonist (125 μg) on days 1-3. […]
For human peripheral ILC2s, peripheral blood mononuclear cells (PBMCs) were first isolated from human fresh blood by diluting the blood 1:1 in PBS, adding to SepMate™-50 separation tubes (STEMCELL Technologies Inc, Vancouver, Canada) prefilled with 15-mL Lymphoprep™ each (Axis-Shield, Oslo, Norway), and centrifuging at 1200 g for 15 minutes. […] On day 4, lung function was measured and BAL was performed and analyzed.
Murine ILC2s were isolated from BALB/cByJ mice to >95% purity using the FACSARIA III cell sorter. […] Levels of cytokines were measured by ELISA (eBioscience), according to the manufacturer's instructions.

For the compound `COc1ccc(/C=C2\CCCN=C2c2cccnc2)c(OC)c1` [GTS-21, 3-[(3E)-3-[(2,4-dimethoxyphenyl)methylidene]-5,6-dihydro-4H-pyridin-2-yl]pyridine], the “IL-5 production by human ILC2s” value was “decreasing” and the “IL-13 production by human ILC2s” value is “decreasing”.
